Results: US10174013B2, “Benzimidazole derivatives as kinase inhibitors” (SELVITA S.A., priority 2012, dated 2019)
Where a name gives a salt, the structure may show the parent alone. Read-outs that look alike come from different tables or passages of the source.

Tests used:
Pim-1 = Pim-1 (Homo sapiens (Human), UniProt P11309); assay: ADP-Glo Kinase Assay, Pim-1; format: biochemical; details: 1 μM compound; for inhibition at 1 µM: read-out: Pim-1 % INH (1 μM)
How it was run: (§1)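 ADP-Glo luminescent ADP detection of human kinase activity in 5 mM MOPS pH 7.5, 5 mM MgCl2, 0.4 mM EDTA, 1.5 mM DTT. ATP at each kinase's apparent Km; compounds diluted to 1000 nM in assay buffer. Percent inhibition from normalised luminescence.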

Pim-2 = Pim-2 (Homo sapiens (Human), UniProt Q9P1W9); assay: ADP-Glo Kinase Assay, Pim-2; format: biochemical; details: 1 μM compound; for inhibition at 1 µM: read-out: Pim-2 % INH (1 μM)
Pim-2, sequence (Q9P1W9 whole entry): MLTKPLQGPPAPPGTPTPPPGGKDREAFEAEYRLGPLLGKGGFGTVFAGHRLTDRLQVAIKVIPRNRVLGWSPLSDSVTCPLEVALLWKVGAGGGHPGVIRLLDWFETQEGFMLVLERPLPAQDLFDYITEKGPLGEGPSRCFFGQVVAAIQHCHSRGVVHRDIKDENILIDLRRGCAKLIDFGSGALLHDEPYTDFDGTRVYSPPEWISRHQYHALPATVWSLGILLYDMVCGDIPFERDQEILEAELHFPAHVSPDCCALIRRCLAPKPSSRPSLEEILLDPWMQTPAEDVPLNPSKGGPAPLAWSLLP
How it was run: as §1

Pim-3 = Pim-3 (Homo sapiens (Human), UniProt Q86V86); assay: ADP-Glo Kinase Assay, Pim-3; format: biochemical; details: 1 μM compound; for inhibition at 1 µM: read-out: Pim-3 % INH (1 μM)
How it was run: as §1

FLT3wt = FLT3wt (Homo sapiens (Human), UniProt P36888); assay: ADP-Glo Kinase Assay, Flt3 wt; format: biochemical; details: 1 μM compound; for inhibition at 1 µM: read-out: Flt3wt % INH (1 μM)
FLT3wt, sequence (P36888 27-993): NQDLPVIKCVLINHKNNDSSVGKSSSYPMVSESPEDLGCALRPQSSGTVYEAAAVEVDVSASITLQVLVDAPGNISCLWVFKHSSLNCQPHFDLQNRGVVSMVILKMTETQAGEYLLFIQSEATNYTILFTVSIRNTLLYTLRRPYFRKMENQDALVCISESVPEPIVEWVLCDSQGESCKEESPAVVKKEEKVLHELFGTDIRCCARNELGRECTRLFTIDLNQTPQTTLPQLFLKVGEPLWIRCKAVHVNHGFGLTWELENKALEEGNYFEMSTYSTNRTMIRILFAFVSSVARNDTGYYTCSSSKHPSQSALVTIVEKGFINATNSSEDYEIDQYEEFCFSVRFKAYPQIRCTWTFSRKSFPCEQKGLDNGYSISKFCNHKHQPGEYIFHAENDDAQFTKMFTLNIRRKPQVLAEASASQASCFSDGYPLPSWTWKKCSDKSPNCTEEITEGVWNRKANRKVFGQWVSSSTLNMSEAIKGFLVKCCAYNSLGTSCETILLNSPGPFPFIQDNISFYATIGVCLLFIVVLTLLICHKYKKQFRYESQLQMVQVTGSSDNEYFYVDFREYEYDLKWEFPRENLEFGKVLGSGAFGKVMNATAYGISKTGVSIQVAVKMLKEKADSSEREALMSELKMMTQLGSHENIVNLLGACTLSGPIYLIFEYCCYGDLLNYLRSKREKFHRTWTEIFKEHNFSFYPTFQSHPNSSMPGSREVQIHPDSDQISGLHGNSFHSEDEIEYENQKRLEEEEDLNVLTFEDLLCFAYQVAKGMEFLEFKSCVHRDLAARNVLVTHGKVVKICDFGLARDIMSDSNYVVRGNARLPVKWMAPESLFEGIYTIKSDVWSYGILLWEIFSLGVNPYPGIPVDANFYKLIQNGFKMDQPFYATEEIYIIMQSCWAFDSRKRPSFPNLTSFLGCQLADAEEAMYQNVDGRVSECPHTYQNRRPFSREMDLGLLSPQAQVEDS
How it was run: as §1

CDK2/E = CDK2/E (Homo sapiens (Human), UniProt P24941); assay: ADP-Glo Kinase Assay, CDK2/E; format: biochemical; details: 1 μM compound; for inhibition at 1 µM: read-out: CDK2/E % INH (1 μM)
How it was run: as §1

DYRK1 = DYRK1 (Homo sapiens (Human), UniProt Q13627); assay: ADP-Glo Kinase Assay, DYRK1; format: biochemical; details: 1 μM compound; for inhibition at 1 µM: read-out: DYRK1A % INH (1 μM)
How it was run: as §1

MV4-11 cells = assay: Growth inhibition, MTS assay, MV4-11; format: cell-based, Human; details: MTS cell viability, read-out: MV4-11 ED50
HEL92 cells = assay: Growth inhibition, MTS assay, HEL92; format: cell-based, Human; details: MTS cell viability, read-out: HEL92 ED50
HepG2 cells = assay: Growth inhibition, MTS assay, HepG2; format: cell-based, Human; details: MTS cell viability, read-out: HepG2 ED50
hERG potassium channel = hERG potassium channel (Homo sapiens (Human), UniProt Q12809); assay: hERG automated patch clamp assay (QPatch HT)
hERG potassium channel, sequence (Q12809 whole entry): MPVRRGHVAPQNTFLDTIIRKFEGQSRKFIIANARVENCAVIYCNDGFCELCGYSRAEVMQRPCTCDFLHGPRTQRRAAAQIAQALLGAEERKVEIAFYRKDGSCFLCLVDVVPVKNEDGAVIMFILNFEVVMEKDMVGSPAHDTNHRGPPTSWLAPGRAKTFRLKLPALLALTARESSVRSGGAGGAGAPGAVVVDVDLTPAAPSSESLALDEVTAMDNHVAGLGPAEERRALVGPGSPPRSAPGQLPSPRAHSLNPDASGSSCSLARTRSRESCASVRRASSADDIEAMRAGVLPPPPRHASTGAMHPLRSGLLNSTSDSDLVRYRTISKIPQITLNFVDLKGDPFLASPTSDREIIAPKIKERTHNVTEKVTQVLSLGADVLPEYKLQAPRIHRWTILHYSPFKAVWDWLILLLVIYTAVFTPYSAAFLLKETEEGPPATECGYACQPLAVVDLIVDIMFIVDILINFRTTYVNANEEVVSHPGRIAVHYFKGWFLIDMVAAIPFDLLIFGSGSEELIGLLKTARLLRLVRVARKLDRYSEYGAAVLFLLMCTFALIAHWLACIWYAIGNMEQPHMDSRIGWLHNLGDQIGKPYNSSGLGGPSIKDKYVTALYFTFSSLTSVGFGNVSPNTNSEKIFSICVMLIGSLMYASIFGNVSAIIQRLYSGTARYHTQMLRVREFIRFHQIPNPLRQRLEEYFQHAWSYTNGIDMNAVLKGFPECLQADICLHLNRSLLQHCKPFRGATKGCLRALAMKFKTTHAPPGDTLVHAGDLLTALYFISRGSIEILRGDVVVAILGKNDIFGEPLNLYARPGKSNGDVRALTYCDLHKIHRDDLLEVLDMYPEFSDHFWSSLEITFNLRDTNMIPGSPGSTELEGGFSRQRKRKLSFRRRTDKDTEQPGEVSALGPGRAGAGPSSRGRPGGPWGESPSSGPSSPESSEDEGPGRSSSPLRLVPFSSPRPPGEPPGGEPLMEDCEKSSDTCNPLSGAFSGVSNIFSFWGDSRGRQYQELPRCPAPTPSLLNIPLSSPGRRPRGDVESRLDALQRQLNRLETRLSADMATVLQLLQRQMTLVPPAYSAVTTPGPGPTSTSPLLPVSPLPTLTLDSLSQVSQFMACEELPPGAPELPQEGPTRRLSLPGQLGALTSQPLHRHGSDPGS
Description: The hERG (human ether-A-go-go-related gene) channel corresponds to an important anti-target for potential new drugs since its inhibition may lead to sudden death. In order to establish whether the compounds of the present invention act on hERG, the following experiment was carried out.
The in vitro effects of the compounds indicated in Table 5 on the hERG potassium channel current (a surrogate for Iκr, the rapidly activating, delayed rectifier cardiac potassium current) expressed in mammalian cells were evaluated at room temperature using the QPatch HT® (Sophion Bioscience A/S, Denmark), an automatic parallel patch clamp system. Each compound indicated in Table 5 was evaluated at 0.1, 1, 3, 10 and 30 μM with each concentration tested in a minimum of two cells (n≥2). The duration of exposure to each compound concentration was 3 minutes.

Jeko-1 cells = assay: Growth inhibition, MTS assay, Jeko-1; format: cell-based, Human; details: 72 hours, MTS cell viability, read-out: Jeko-1 ED50
From the text: (§2) The following cell lines, were obtained and used in tests as outlined below: • Human myelomonocytic, biphenotypic leukemia MV4-11 cells (harboring a Flt3-ITD mutation); • Human Acute Myeloid Leukemia MOLM16 cells; • Human Acute Myeloid Leukemia MOLM13 cells (harboring a Flt3-ITD mutation); • Human Myeloid Leukemia KG-1 cells; • Human erythroleukemia HEL92 cells; • Human mantle cell lymphoma Jeko-1 cells; • Human hepatocellular carcinoma HepG2 cells; and • Human colon adenocarcinoma SW-480 cells.
(§3) The assays were carried out according to the following protocol, which is described as an example for the MV4-11 cells:
(§4) Ten thousand MV4-11 cells were inoculated into each well of a 96-well microplate (manufactured by Corning Corp.) using Iscove's MDM medium (culture medium) containing 10% fetal calf serum (FCS). The same day, a dimethyl sulfoxide (DMSO) solution of each test compound prepared in a concentration of 10 mmol/L was further diluted with DMSO to the desired concentrations (0.1, 0.5, 1, 2.5, 5 and 10 micromol/L), and the diluted solution was added to each well. The individual wells were further cultured in 5% carbon dioxide at 37° C. for 72 hours. […] Briefly, 10 μl MTS (3-(4,5-Dimethyl-2-thiazolyl)-5-(carboxymethoxyphenyl)-2-(4-sulfophenyl)-2H-tetrazolium was added to each well, and culturing was performed in 5% carbon dioxide at 37° C. for 2 hours. After this incubation and using a microplate spectrophotometer (Synergy 2 multi-mode microplate reader (BioTek)), the absorbance of each well was measured at 490 nm. The value for cells not incubated with a test compound was designated as 100%. By comparing these values with the absorbance difference obtained at the well in which each test compound was added, the cell viability (% viability) after treatment with the test compound was calculated.

SW-480 cells = assay: Growth inhibition, MTS assay, SW-480; format: cell-based, Human; details: 72 hours, MTS cell viability, read-out: SW-480 ED50
From the text: as §2, §3, §4

MV4-11 xenograft = MV4-11 xenograft in immunocompromised mice; format: in vivo
From the text: Several compounds of the present invention have been studied in a xenograft in mice, an in vivo tumor transplantation model used to investigate the factors involved in malignant transformation, invasion and metastasis, as well as to examine response to therapy. For the purpose of acceptance of donor leukemic cells (MV4-11 or MOLM16 cells), immunocompromised mice were used, namely particularly severely compromised immunodeficient mice (NOD/scid, SCID/beige). When tumors developed size of approx. 50-200 mm^3, the compounds as indicated below in Tables 3 and 3a were administered orally every day for 2-3 weeks, in once a day (QD) or twice a day (BID) schedule. During the course of the experiment, the mice were monitored and the following two parameters were measured: the tumor growth inhibition (TGI) factor as a measure of therapeutic efficacy and the body weight change (ΔBW) factor as a measure of possible compound toxicity. The results are depicted in Tables 3 and 3a.
Next, compound 26A was evaluated in a xenograft study of acute myeloid leukemia (MV-4-11), alone or in a combinational treatment with Cytarabine in vivo (Table 3b; FIG. 6). Compound 26A was tested in two doses (50 and 25 mg/kg) and administered twice a day (BID); Cytarabine was administered at dose of 50 mg/kg three times in a week (TIW). During 15 days of compound administration dose-dependent anti-cancer activity of compound 26A (administered alone) was shown. Tumor growth inhibition reached −82% and −77%, respectively.

[1] = MV-4-11 xenograft, Cytarabine 50 mg/Kg TIW
[2] = MV4-11 xenograft, oral, 150 mg/Kg QD

Pim-1, sequence (P11309 whole entry): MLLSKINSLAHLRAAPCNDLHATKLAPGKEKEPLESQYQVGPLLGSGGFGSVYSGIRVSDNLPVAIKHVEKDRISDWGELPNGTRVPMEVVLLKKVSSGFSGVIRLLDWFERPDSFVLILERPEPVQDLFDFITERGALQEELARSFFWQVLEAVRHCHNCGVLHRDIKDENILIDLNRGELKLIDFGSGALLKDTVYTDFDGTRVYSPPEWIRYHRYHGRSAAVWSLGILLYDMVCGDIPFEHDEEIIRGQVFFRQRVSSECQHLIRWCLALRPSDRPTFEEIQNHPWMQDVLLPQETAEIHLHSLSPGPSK

SMILES | inhibition at 1 µM (Pim-1) [%] | inhibition at 1 µM (Pim-2) [%] | inhibition at 1 µM (Pim-3) [%] | inhibition at 1 µM (FLT3wt) [%] | inhibition at 1 µM (CDK2/E) [%] | inhibition at 1 µM (DYRK1) [%] | IC50 (MV4-11 cells; Homo sapiens, MV4-11, 72 h) [nM] | IC50 (HEL92 cells; Homo sapiens, 72 h) [nM] | IC50 (HepG2 cells; Homo sapiens, HepG2, 72 h) [nM] | IC50 (Jeko-1 cells; Homo sapiens, JeKo-1) [nM] | IC50 (SW-480 cells; Homo sapiens, SW480) [nM] | other results
CC(C)n1c(N2CCOC(CN)C2)nc2c([N+](=O)[O-])c(Br)c(Br)cc21 (centres unmarked) [Example 1AQ] | > 95 | 40 | 83 | < 5 | < 5 | 22 | 2500 | 9600 | 4900 |  |  | IC50 (hERG potassium channel; human, 3 min): 1860 nM
CC(C)n1c(N2CCCC(N)C2)nc2c([N+](=O)[O-])c(Br)c(Br)cc21 (centres unmarked) [Example 1T] | > 95 | 81 | > 95 | 21 | 7 | 27 | 600 | 5100 | 1300 | 1700 | 3200 | 
CC(C)=CCn1c(N2CCNCC2)nc2c([N+](=O)[O-])c(Br)c(Br)cc21 [Example 2E, 5,6-dibromo-1-(3-methylbut-2-en-1-yl)-4-nitro-2-(piperazin-1-yl)-1H-1,3-benzodiazole hydrochloride] | 79 | 63 | 56 | 25 | 15 | 72 | 5500 | 5400 | 900 | 1600 | 1800 | 
CC(C)Cn1c(N2CCCC(N)C2)nc2c([N+](=O)[O-])c(Br)c(Br)cc21 (centres unmarked) [Example 1V] | > 95 |  | > 95 | < 5 | < 5 | 11 | 700 | 5600 | 900 | 2900 | 3100 | 
Nc1ccn([C@@H]2O[C@H](CO)[C@@H](O)[C@@H]2O)c(=O)n1 [Cytarabine, cytarabine, reference compound] |  |  |  |  |  |  |  |  |  |  |  | TGI (tumor growth inhibition) (MV4-11 xenograft; [1]): 60%; ΔBW (body weight change) (MV4-11 xenograft; [1]): −2%
CCn1c(N2CCCC2CN)nc2c([N+](=O)[O-])c(Br)c(Br)cc21 (centres unmarked) [Example 1Z] | 67 |  | 92 | < 5 | < 5 |  | 1700 |  | 6400 | 5600 | 6900 | 
CCn1c(NC2CCC(O)CC2)nc2c([N+](=O)[O-])c(Br)c(Br)cc21 (centres unmarked) [Example 22B, 4-[(5,6-dibromo-1-ethyl-4-nitro-1H-1,3-benzodiazol-2-yl)amino]cyclohexan-1-ol] |  |  |  |  |  |  | 7900 | 8800 | > 10000 | 3000 | 6000 | 
CCCn1c(N2CCCC(N)C2)nc2c([N+](=O)[O-])c(Br)c(Br)cc21 (centres unmarked) [Example 1U] | > 95 | 37 | > 95 | 9 | < 5 | 35 | 600 | 4700 | 1500 | 1800 | 3300 | 
CCn1c(N2CCNC(=O)C2)nc2c([N+](=O)[O-])c(Br)c(Br)cc21 [Example 22A, 4-(5,6-dibromo-1-ethyl-4-nitro-1H-1,3-benzodiazol-2-yl)piperazin-2-one] | 65 |  | 28 | 8 | < 5 |  |  |  |  |  |  | IC50 (hERG potassium channel; read-out: hERG IC50, automated patch clamp, room temperature, 0.1-30 μM, 3 minutes exposure): 10100 nM
O=[N+]([O-])c1c(Br)c(Br)cc2c1nc(N1CCNCC1)n2C1CC1 [Example 21A, 5,6-dibromo-1-cyclopropyl-4-nitro-2-(piperazin-1-yl)-1H-1,3-benzodiazole trifluoroacetate] | 87 | 42 | 71 | 37 | 5 | 50 | 500 | 1900 | 1600 | 600 | 3200 | 
CC(C)n1c(N2CC[C@H](N)C2)nc2c([N+](=O)[O-])c(Br)c(Br)cc21 [Example 1AZ] |  |  |  |  |  |  |  |  |  |  |  | Pim-1 % INH (1 μM) (Pim-1): >95%; Pim-2 % INH (1 μM) (Pim-2): 70%; Pim-3 % INH (1 μM) (Pim-3): 94%; Flt3wt % INH (1 μM) (FLT3wt): 48%; CDK2/E % INH (1 μM) (CDK2/E): 38%; DYRK1A % INH (1 μM) (DYRK1): 72%; IC50 (MV4-11 cells; 72 hours): 1100 nM; IC50 (HEL92 cells; 72 hours): 2600 nM; IC50 (HepG2 cells; 72 hours): 2200 nM; TGI (tumor growth inhibition) (MV4-11 xenograft; [2]): 76%; ΔBW (body weight change) (MV4-11 xenograft; [2]): −0.2%; TGI (tumor growth inhibition) (MV4-11 xenograft; MV4-11 xenograft, oral, doses as in Table 3): more than 70%
NCCCNc1nc2c([N+](=O)[O-])c(Br)c(Br)cc2n1CC1CC1 [Example 1AB] |  |  |  |  |  |  |  |  |  |  |  | Pim-1 % INH (1 μM) (Pim-1): >95%; Pim-2 % INH (1 μM) (Pim-2): 46%; Pim-3 % INH (1 μM) (Pim-3): 87%; Flt3wt % INH (1 μM) (FLT3wt): <5%; CDK2/E % INH (1 μM) (CDK2/E): <5%; IC50 (MV4-11 cells; 72 hours): 2800 nM; IC50 (HEL92 cells; 72 hours): 5800 nM; IC50 (HepG2 cells; 72 hours): 2300 nM; IC50 (Jeko-1 cells): 1200 nM; IC50 (SW-480 cells): 3200 nM
CCn1c(NC2CCC(N)CC2)nc2c([N+](=O)[O-])c(Br)c(Br)cc21 (centres unmarked) [Example 1H] |  | 25 | 38 |  |  |  |  |  |  |  | 3400 | Pim-1 % INH (1 μM) (Pim-1): 58%; Flt3wt % INH (1 μM) (FLT3wt): <5%; CDK2/E % INH (1 μM) (CDK2/E): <5%; DYRK1A % INH (1 μM) (DYRK1): 9%; IC50 (MV4-11 cells; 72 hours): 2300 nM; IC50 (HEL92 cells; 72 hours): 7600 nM; IC50 (HepG2 cells; 72 hours): 2700 nM
